Measured values: patent US11325980B2, “Combination therapy using a LIV1-ADC and a chemotherapeutic” (SEATTLE GENETICS, INC., priority 2016, dated 2022)

Test system: MCF-7 cells
Assay: In vivo tumor growth inhibition (TGI), MCF-7 cells implanted subcutaneously in NSG mice
Set-up: species or system NOD Scid Gamma (NSG) mice
Settings: for ranking of combinatorial benefit in vivo: combined with SGN-LIV1A, doses of Table 2, nab-paclitaxel 10 mg/kg; for Expected combination TGI: expected additive; for Combinatorial benefit: observed minus expected combination TGI; for TGI: single agent
Description: NOD Scid Gamma (NSG) mice were obtained from Jackson Laboratory and implanted with 17-β-estradiol pellet (Innovative Research of America; Sarasota, Fla.) one day prior to cell implant. Five million MCF-7 cells were implanted subcutaneously with Matrigel (BD Biosciences; Franklin Lakes, N.J.) and tumor volume was determined by a digital caliper twice a week, using the formula: volume=½×length width^2.
Mice received treatments when the average tumor volume reached 100 mm^3. The treatment regimen for each agent was: doxorubicin, 1 mg/kg q4dx3 intravenous (IV); SGN-LIV1, 1 mg/kg q4dx4 intraperitoneal (IP); […]; carboplatin 10 mg/kg q7dx3 IP; cyclophosphamide, 40 mg/kg q7dx3 IV; gemcitabine 20 mg/kg q7dx2 IP; and paclitaxel 10 mg/kg q3dx5 IP. Combination groups received the first dose of SGN-LIV1A and combination drug on the same day. n=6 for each group. The effects of each drug and their combination on tumor growth were plotted in FIGS. 6-8.
To determine the combined benefit in vivo, tumor growth inhibition (TGI) was compared using the area under the curve between untreated, single agent groups, and combined groups on the date the untreated animals were euthanized (Table 2). […] Thus, the expected additive TGI for combination is […].

[1] = named drug 10 mg/kg combined with 1 mg/kg SGN-LIV1A
[2] = named drug 40 mg/kg combined with 1 mg/kg SGN-LIV1A
[3] = named drug 1 mg/kg combined with 1 mg/kg SGN-LIV1A
[4] = dose 1 mg/kg, AUC vs untreated on the date untreated animals were euthanized
[5] = named drug 20 mg/kg combined with 1 mg/kg SGN-LIV1A

## N.N.O=C([O-])C1(C(=O)[O-])CCC1.[Pt+2] [carboplatin]
  ranking of combinatorial benefit in vivo: highest combinatorial benefit
[1]
  Observed combination TGI: 60%
  Expected combination TGI: 52%
Named drug 10 mg/kg with 1 mg/kg SGN-LIV1A
  Combinatorial benefit: 8%
Dose 10 mg/kg, AUC vs untreated
  TGI: 21%

## O=P1(N(CCCl)CCCl)NCCCO1 (centres unmarked) [cyclophosphamide]
[2]
  Observed combination TGI: 39%
  Expected combination TGI: 45%
Named drug 40 mg/kg with 1 mg/kg SGN-LIV1A
  Combinatorial benefit: −6%
Dose 40 mg/kg, AUC vs untreated
  TGI: 10%

## COc1cccc2c1C(=O)c1c(O)c3c(c(O)c1C2=O)C[C@@](O)(C(=O)CO)C[C@@H]3O[C@H]1C[C@H](N)[C@H](O)[C@H](C)O1 [doxorubicin]
  ranking of combinatorial benefit in vivo: highest combinatorial benefit
[3]
  Observed combination TGI: 75%
  Expected combination TGI: 55%
Named drug 1 mg/kg with 1 mg/kg SGN-LIV1A
  Combinatorial benefit: 20%
[4]
  TGI: 26%

## Nc1ccn([C@@H]2O[C@H](CO)[C@@H](O)C2(F)F)c(=O)n1 [gemcitabine]
[5]
  Observed combination TGI: 54%
  Expected combination TGI: 51%
Named drug 20 mg/kg when combined with SGN-LIV1A
  combined effect in vivo: nearly additive
Named drug 20 mg/kg with 1 mg/kg SGN-LIV1A
  Combinatorial benefit: 3%
Dose 20 mg/kg, AUC vs untreated
  TGI: 20%

B1: SGN-LIV1A: LIV-1-directed antibody-drug conjugate: humanized antibody hLIV22, valine-citrulline linker, monomethyl auristatin E; average of 4 MMAE per antibody (conjugate, chains of the INN, looked up)
VH: QVQLVQSGAEVKKPGASVKVSCKASGLTIEDYYMHWVRQAPGQGLEWMGWIDPENGDTEYGPKFQGRVTMTRDTSINTAYMELSRLRSDDTAVYYCAVHNAHYGTWFAYWGQGTLVTVSS
VL: DVVMTQSPLSLPVTLGQPASISCRSSQSLLHSSGNTYLEWYQQRPGQSPRPLIYKISTRFSGVPDRFSGSGSGTDFTLKISRVEAEDVGVYYCFQGSHVPYTFGGGTKVEIK
modifications: vedotin (vc-MMAE)
notes: LIV-1-directed antibody-drug conjugate: humanized antibody hLIV22, valine-citrulline linker, monomethyl auristatin E; average of 4 MMAE per antibody
[4]
  TGI: 39%
